# Data from PubChem BioAssay (NCI).
#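 GI50: concentration for 50% inhibition of growth. TGI marks complete inhibition of growth.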
# How the values were obtained:
# Experiment in all cases: inhibition of tumour cell growth, NCI panel, 384-well format
# PC-3 prostate = tested on: PC-3 prostate
# NCI-H322M lung = tested on: NCI-H322M lung
# HOP-92 NSCLC = tested on: HOP-92 NSCLC
# UACC-62 melanoma = tested on: UACC-62 melanoma
# SN12C renal = tested on: SN12C renal
# UO-31 renal = tested on: UO-31 renal
# SK-MEL-28 melanoma = tested on: SK-MEL-28 melanoma
# HL-60(TB) leukemia = tested on: HL-60(TB) leukemia
# SNB-75 CNS = tested on: SNB-75 CNS
# HCT-116 colon = tested on: HCT-116 colon
# RXF 393 renal = tested on: RXF 393 renal
# MOLT-4 leukemia = tested on: MOLT-4 leukemia
# OVCAR-3 ovarian = tested on: OVCAR-3 ovarian
# UACC-257 melanoma = tested on: UACC-257 melanoma
# SF-268 CNS = tested on: SF-268 CNS
# MDA-MB-435 melanoma = tested on: MDA-MB-435 melanoma
# HOP-62 NSCLC = tested on: HOP-62 NSCLC
# SF-539 CNS = tested on: SF-539 CNS
# SNB-19 CNS = tested on: SNB-19 CNS
# TK-10 renal = tested on: TK-10 renal
# ACHN renal = tested on: ACHN renal
# SF-295 CNS = tested on: SF-295 CNS
# U251 glioblastoma = tested on: U251 glioblastoma
# NCI-H226 lung = tested on: NCI-H226 lung
# EKVX NSCLC = tested on: EKVX NSCLC
# MDA-MB-231 breast = tested on: MDA-MB-231 breast
# 786-0 renal = tested on: 786-0 renal
# SK-OV-3 ovarian = tested on: SK-OV-3 ovarian
# HT29 colon = tested on: HT29 colon
# T-47D breast = tested on: T-47D breast
# RPMI-8226 leukemia = tested on: RPMI-8226 leukemia
# BT-549 breast = tested on: BT-549 breast
# LOX IMVI melanoma = tested on: LOX IMVI melanoma
# NCI-H522 lung = tested on: NCI-H522 lung
# MCF7 breast = tested on: MCF7 breast
# MDA-MB-468 breast = tested on: MDA-MB-468 breast
# IGROV1 ovarian = tested on: IGROV1 ovarian
# CCRF-CEM leukemia = tested on: CCRF-CEM leukemia
# K-562 leukemia = tested on: K-562 leukemia
# KM12 colon = tested on: KM12 colon
# A498 renal = tested on: A498 renal
# HS 578T breast = tested on: HS 578T breast
# OVCAR-8 ovarian = tested on: OVCAR-8 ovarian
# A549 NSCLC = tested on: A549 NSCLC
# HCT-15 colon = tested on: HCT-15 colon
# M14 melanoma = tested on: M14 melanoma
# CAKI-1 renal = tested on: CAKI-1 renal
# MALME-3M melanoma = tested on: MALME-3M melanoma
# NCI-H23 lung = tested on: NCI-H23 lung
# OVCAR-5 ovarian = tested on: OVCAR-5 ovarian
# NCI/ADR-RES ovarian = tested on: NCI/ADR-RES ovarian
# SW-620 colon = tested on: SW-620 colon
compound,measurement,setting,value
S=c1nc[nH]c2nc[nH]c12,GI50,PC-3 prostate,2400 nM
same,GI50,NCI-H322M lung,1060 nM
same,TGI,NCI-H322M lung,7.28 µM
same,GI50,HOP-92 NSCLC,301 nM
same,GI50,UACC-62 melanoma,876 nM
same,GI50,SN12C renal,2430 nM
same,TGI,SN12C renal,19.4 µM
same,GI50,UO-31 renal,1860 nM
same,TGI,UO-31 renal,5.23 µM
same,GI50,SK-MEL-28 melanoma,15.4 µM
same,TGI,SK-MEL-28 melanoma,99.6 µM
same,GI50,HL-60(TB) leukemia,357 nM
same,TGI,HL-60(TB) leukemia,1840 nM
same,GI50,SNB-75 CNS,217 nM
same,TGI,SNB-75 CNS,5.13 µM
same,GI50,HCT-116 colon,1800 nM
same,GI50,RXF 393 renal,241 nM
same,TGI,RXF 393 renal,1160 nM
same,GI50,MOLT-4 leukemia,151 nM
same,TGI,MOLT-4 leukemia,318 nM
same,GI50,OVCAR-3 ovarian,168 nM
same,TGI,OVCAR-3 ovarian,389 nM
same,GI50,UACC-257 melanoma,2040 nM
same,GI50,SF-268 CNS,1110 nM
same,TGI,SF-268 CNS,2800 nM
same,GI50,MDA-MB-435 melanoma,729 nM
same,GI50,HOP-62 NSCLC,219 nM
same,TGI,HOP-62 NSCLC,592 nM
same,GI50,SF-539 CNS,481 nM
same,TGI,SF-539 CNS,2910 nM
same,GI50,SNB-19 CNS,11.3 µM
same,TGI,SNB-19 CNS,37 µM
same,GI50,TK-10 renal,437 nM
same,TGI,TK-10 renal,2190 nM
same,GI50,ACHN renal,1830 nM
same,TGI,ACHN renal,6.91 µM
same,GI50,SF-295 CNS,1130 nM
same,TGI,SF-295 CNS,3.71 µM
same,GI50,U251 glioblastoma,3.3 µM
same,GI50,NCI-H226 lung,294 nM
same,TGI,NCI-H226 lung,11.9 µM
same,GI50,EKVX NSCLC,53.9 µM
same,GI50,MDA-MB-231 breast,395 nM
same,TGI,MDA-MB-231 breast,1860 nM
same,GI50,786-0 renal,468 nM
same,TGI,786-0 renal,2200 nM
same,GI50,SK-OV-3 ovarian,569 nM
same,GI50,HT29 colon,1890 nM
same,GI50,T-47D breast,423 nM
same,GI50,RPMI-8226 leukemia,289 nM
same,TGI,RPMI-8226 leukemia,1280 nM
same,GI50,BT-549 breast,482 nM
same,TGI,BT-549 breast,2300 nM
same,GI50,LOX IMVI melanoma,206 nM
same,TGI,LOX IMVI melanoma,481 nM
same,GI50,NCI-H522 lung,299 nM
same,TGI,NCI-H522 lung,1770 nM
same,GI50,MCF7 breast,272 nM
same,TGI,MCF7 breast,10.2 µM
same,GI50,MDA-MB-468 breast,150 nM
same,TGI,MDA-MB-468 breast,416 nM
same,GI50,IGROV1 ovarian,3.63 µM
same,GI50,CCRF-CEM leukemia,1420 nM
same,TGI,CCRF-CEM leukemia,3 µM
same,GI50,K-562 leukemia,334 nM
same,TGI,K-562 leukemia,950 nM
same,GI50,KM12 colon,1330 nM
same,GI50,A498 renal,10.6 µM
same,TGI,A498 renal,96.7 µM
same,GI50,HS 578T breast,473 nM
same,TGI,HS 578T breast,3.38 µM
same,GI50,OVCAR-8 ovarian,1480 nM
same,TGI,OVCAR-8 ovarian,5.93 µM
same,GI50,A549 NSCLC,5.6 µM
same,TGI,A549 NSCLC,57.1 µM
same,GI50,HCT-15 colon,4.73 µM
same,GI50,M14 melanoma,306 nM
same,GI50,CAKI-1 renal,1570 nM
same,TGI,CAKI-1 renal,5.45 µM
same,GI50,MALME-3M melanoma,494 nM
same,TGI,MALME-3M melanoma,3.14 µM
same,GI50,NCI-H23 lung,576 nM
same,TGI,NCI-H23 lung,5.86 µM
same,GI50,OVCAR-5 ovarian,1250 nM
same,TGI,OVCAR-5 ovarian,2800 nM
same,GI50,NCI/ADR-RES ovarian,2060 nM
same,TGI,NCI/ADR-RES ovarian,8.77 µM
same,GI50,SW-620 colon,4.15 µM
